Laboratory results published in the supplement of paper PMC4862054.

What follows are molecules tested on CAL-120 (assay: drug sensitivity score (DSS), CellTox Green (DSS (AUC-based score)); higher = stronger drug effect (viability inhibition or cytotoxicity); extreme values may be limits of the assay). Conditions: incubation time: 72 h.
Procedure, shortened: (§1)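 The drug sensitivity score was computed from the area under the fitted dose-response curve. Breast cancer cell lines in 20 µl suspension went into 384-well plates holding compound at 5 concentrations (10-fold steps over a 10,000-fold, compound-specific range) for 72 h of incubation. CellTox Green fluorescence (485/520 nm) was read before CellTiter-Glo luminescence, the latter after 10 min at room temperature, and each plate was normalised to 0.1 % DMSO and a positive kill control.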
`COc1ncc(-c2ccc3nccc(-c4ccnnc4)c3c2)cc1NS(=O)(=O)c1ccc(F)cc1F` was tested, and the drug sensitivity score was 0. In the case of `Cn1c(=O)c(F)c(Nc2ccc(I)cc2F)c2c(=O)n(C[C@@H](O)CO)cnc21` [TAK-733], the drug sensitivity score is reported as 0.284. `COC1=CC(c2cc3ccccc3[nH]2)=N/C1=C\c1[nH]c(C)cc1C` [Obatoclax] was tested, and the drug sensitivity score was 0. Work on `CS(=O)(=O)OCCCCOS(C)(=O)=O` [Busulfan] yielded a drug sensitivity score of 0. `COc1cccc2c1C(=O)c1c(O)c3c(c(O)c1C2=O)C[C@@](O)(C(C)=O)C[C@@H]3O[C@H]1C[C@H](N)[C@H](O)[C@H](C)O1` [Daunorubicin] was tested, and the drug sensitivity score was 0. With `FC(F)c1nc2ccccc2n1-c1nc(N2CCOCC2)nc(N2CCOCC2)n1` [ZSTK474] the drug sensitivity score was 0. `CN1CCN(c2ccc3nc(-c4c(N)c5c(F)cccc5[nH]c4=O)[nH]c3c2)CC1` [Dovitinib] showed a drug sensitivity score of 0.

Each molecule was assayed on CAL-148 in the same assay as above. Conditions: incubation time: 72 h.
Procedure, shortened: as §1
For `C[C@@H]1C=C2C(=O)O[C@@H]3CC[C@H](C1)[C@]23O` [Galiellalactone], the drug sensitivity score was 0. Work on `C[C@@H]1CCN(C(=O)CC#N)C[C@@H]1N(C)c1ncnc2[nH]ccc12` [Tofacitinib] yielded a drug sensitivity score of 0. Molecule `Nc1nccc(-c2c(-c3ccc(F)cc3)ncn2C2CCCCC2)n1` has a drug sensitivity score of 0. `CCOc1cc2ncc(C#N)c(Nc3ccc(OCc4ccccn4)c(Cl)c3)c2cc1NC(=O)/C=C/CN(C)C` [Neratinib] showed a drug sensitivity score of 0.237. `C[C@@]1(C(=O)Nc2ccc(F)nc2)CCCN1c1nc(Nc2cc(C3CC3)n[nH]2)c2cccn2n1` gave a drug sensitivity score of 2.31. Work on `C#Cc1cccc(Nc2ncnc3cc(OC)c(OCCCCCCC(=O)NO)cc23)c1` [CUDC-101] yielded a drug sensitivity score of 8.84. Work on `COc1ncc(-c2ccc3nccc(-c4ccnnc4)c3c2)cc1NS(=O)(=O)c1ccc(F)cc1F` yielded a drug sensitivity score of 6.5. `Cn1c(=O)c(F)c(Nc2ccc(I)cc2F)c2c(=O)n(C[C@@H](O)CO)cnc21` [TAK-733] gave a drug sensitivity score of 0. Work on `COC1=CC(c2cc3ccccc3[nH]2)=N/C1=C\c1[nH]c(C)cc1C` [Obatoclax] yielded a drug sensitivity score of 0. Work on `CS(=O)(=O)OCCCCOS(C)(=O)=O` [Busulfan] yielded a drug sensitivity score of 0. In the case of `COc1cccc2c1C(=O)c1c(O)c3c(c(O)c1C2=O)C[C@@](O)(C(C)=O)C[C@@H]3O[C@H]1C[C@H](N)[C@H](O)[C@H](C)O1` [Daunorubicin], the drug sensitivity score is reported as 0. `FC(F)c1nc2ccccc2n1-c1nc(N2CCOCC2)nc(N2CCOCC2)n1` [ZSTK474] gave a drug sensitivity score of 0. For `CN1CCN(c2ccc3nc(-c4c(N)c5c(F)cccc5[nH]c4=O)[nH]c3c2)CC1` [Dovitinib], the drug sensitivity score was 0.

What follows are molecules tested on CAL-51 in the same assay as above. Conditions: incubation time: 72 h.
Procedure, shortened: as §1
Molecule `C[C@@H]1C=C2C(=O)O[C@@H]3CC[C@H](C1)[C@]23O` [Galiellalactone] has a drug sensitivity score of 0. Molecule `C[C@@H]1CCN(C(=O)CC#N)C[C@@H]1N(C)c1ncnc2[nH]ccc12` [Tofacitinib] has a drug sensitivity score of 0. With `Nc1nccc(-c2c(-c3ccc(F)cc3)ncn2C2CCCCC2)n1` the drug sensitivity score was 0. Molecule `CCOc1cc2ncc(C#N)c(Nc3ccc(OCc4ccccn4)c(Cl)c3)c2cc1NC(=O)/C=C/CN(C)C` [Neratinib] has a drug sensitivity score of 0. With `C[C@@]1(C(=O)Nc2ccc(F)nc2)CCCN1c1nc(Nc2cc(C3CC3)n[nH]2)c2cccn2n1` the drug sensitivity score was 10.5. `C#Cc1cccc(Nc2ncnc3cc(OC)c(OCCCCCCC(=O)NO)cc23)c1` [CUDC-101] showed a drug sensitivity score of 6.83. Work on `COc1ncc(-c2ccc3nccc(-c4ccnnc4)c3c2)cc1NS(=O)(=O)c1ccc(F)cc1F` yielded a drug sensitivity score of 6.6. Work on `Cn1c(=O)c(F)c(Nc2ccc(I)cc2F)c2c(=O)n(C[C@@H](O)CO)cnc21` [TAK-733] yielded a drug sensitivity score of 0. With `COC1=CC(c2cc3ccccc3[nH]2)=N/C1=C\c1[nH]c(C)cc1C` [Obatoclax] the drug sensitivity score was 6.54. With `CS(=O)(=O)OCCCCOS(C)(=O)=O` [Busulfan] the drug sensitivity score was 0. In the case of `COc1cccc2c1C(=O)c1c(O)c3c(c(O)c1C2=O)C[C@@](O)(C(C)=O)C[C@@H]3O[C@H]1C[C@H](N)[C@H](O)[C@H](C)O1` [Daunorubicin], the drug sensitivity score is reported as 5.74. `FC(F)c1nc2ccccc2n1-c1nc(N2CCOCC2)nc(N2CCOCC2)n1` [ZSTK474] showed a drug sensitivity score of 0. Molecule `CN1CCN(c2ccc3nc(-c4c(N)c5c(F)cccc5[nH]c4=O)[nH]c3c2)CC1` [Dovitinib] has a drug sensitivity score of 0.

Each molecule was assayed on CAL-85-1 in the same assay as above. Conditions: incubation time: 72 h.
Procedure, shortened: as §1
Work on `C[C@@H]1C=C2C(=O)O[C@@H]3CC[C@H](C1)[C@]23O` [Galiellalactone] yielded a drug sensitivity score of 1.02. Work on `C[C@@H]1CCN(C(=O)CC#N)C[C@@H]1N(C)c1ncnc2[nH]ccc12` [Tofacitinib] yielded a drug sensitivity score of 0. Molecule `Nc1nccc(-c2c(-c3ccc(F)cc3)ncn2C2CCCCC2)n1` has a drug sensitivity score of 0. In the case of `CCOc1cc2ncc(C#N)c(Nc3ccc(OCc4ccccn4)c(Cl)c3)c2cc1NC(=O)/C=C/CN(C)C` [Neratinib], the drug sensitivity score is reported as 3.47. `C[C@@]1(C(=O)Nc2ccc(F)nc2)CCCN1c1nc(Nc2cc(C3CC3)n[nH]2)c2cccn2n1` gave a drug sensitivity score of 0. Molecule `C#Cc1cccc(Nc2ncnc3cc(OC)c(OCCCCCCC(=O)NO)cc23)c1` [CUDC-101] has a drug sensitivity score of 20.1. `COc1ncc(-c2ccc3nccc(-c4ccnnc4)c3c2)cc1NS(=O)(=O)c1ccc(F)cc1F` showed a drug sensitivity score of 0. For `Cn1c(=O)c(F)c(Nc2ccc(I)cc2F)c2c(=O)n(C[C@@H](O)CO)cnc21` [TAK-733], the drug sensitivity score was 5.06. Molecule `COC1=CC(c2cc3ccccc3[nH]2)=N/C1=C\c1[nH]c(C)cc1C` [Obatoclax] has a drug sensitivity score of 0. For `CS(=O)(=O)OCCCCOS(C)(=O)=O` [Busulfan], the drug sensitivity score was 0. With `COc1cccc2c1C(=O)c1c(O)c3c(c(O)c1C2=O)C[C@@](O)(C(C)=O)C[C@@H]3O[C@H]1C[C@H](N)[C@H](O)[C@H](C)O1` [Daunorubicin] the drug sensitivity score was 0. For `FC(F)c1nc2ccccc2n1-c1nc(N2CCOCC2)nc(N2CCOCC2)n1` [ZSTK474], the drug sensitivity score was 0. `CN1CCN(c2ccc3nc(-c4c(N)c5c(F)cccc5[nH]c4=O)[nH]c3c2)CC1` [Dovitinib] was tested, and the drug sensitivity score was 0.

The molecules below were run on DU-4475 in the same assay as above. Conditions: incubation time: 72 h.
Procedure, shortened: as §1
With `C[C@@H]1C=C2C(=O)O[C@@H]3CC[C@H](C1)[C@]23O` [Galiellalactone] the drug sensitivity score was 0. With `C[C@@H]1CCN(C(=O)CC#N)C[C@@H]1N(C)c1ncnc2[nH]ccc12` [Tofacitinib] the drug sensitivity score was 0. `Nc1nccc(-c2c(-c3ccc(F)cc3)ncn2C2CCCCC2)n1` showed a drug sensitivity score of 0. For `CCOc1cc2ncc(C#N)c(Nc3ccc(OCc4ccccn4)c(Cl)c3)c2cc1NC(=O)/C=C/CN(C)C` [Neratinib], the drug sensitivity score was 0. For `C[C@@]1(C(=O)Nc2ccc(F)nc2)CCCN1c1nc(Nc2cc(C3CC3)n[nH]2)c2cccn2n1`, the drug sensitivity score was 0. Work on `C#Cc1cccc(Nc2ncnc3cc(OC)c(OCCCCCCC(=O)NO)cc23)c1` [CUDC-101] yielded a drug sensitivity score of 2.65. Molecule `COc1ncc(-c2ccc3nccc(-c4ccnnc4)c3c2)cc1NS(=O)(=O)c1ccc(F)cc1F` has a drug sensitivity score of 0. Molecule `Cn1c(=O)c(F)c(Nc2ccc(I)cc2F)c2c(=O)n(C[C@@H](O)CO)cnc21` [TAK-733] has a drug sensitivity score of 4.73. `COC1=CC(c2cc3ccccc3[nH]2)=N/C1=C\c1[nH]c(C)cc1C` [Obatoclax] showed a drug sensitivity score of 0. In the case of `CS(=O)(=O)OCCCCOS(C)(=O)=O` [Busulfan], the drug sensitivity score is reported as 0. Work on `COc1cccc2c1C(=O)c1c(O)c3c(c(O)c1C2=O)C[C@@](O)(C(C)=O)C[C@@H]3O[C@H]1C[C@H](N)[C@H](O)[C@H](C)O1` [Daunorubicin] yielded a drug sensitivity score of 0. With `FC(F)c1nc2ccccc2n1-c1nc(N2CCOCC2)nc(N2CCOCC2)n1` [ZSTK474] the drug sensitivity score was 0. `CN1CCN(c2ccc3nc(-c4c(N)c5c(F)cccc5[nH]c4=O)[nH]c3c2)CC1` [Dovitinib] was tested, and the drug sensitivity score was 0.

The molecules below were run on HCC1143 in the same assay as above. Conditions: incubation time: 72 h.
Procedure, shortened: as §1
Work on `C[C@@H]1C=C2C(=O)O[C@@H]3CC[C@H](C1)[C@]23O` [Galiellalactone] yielded a drug sensitivity score of 0. For `C[C@@H]1CCN(C(=O)CC#N)C[C@@H]1N(C)c1ncnc2[nH]ccc12` [Tofacitinib], the drug sensitivity score was 0. Molecule `Nc1nccc(-c2c(-c3ccc(F)cc3)ncn2C2CCCCC2)n1` has a drug sensitivity score of 0. `CCOc1cc2ncc(C#N)c(Nc3ccc(OCc4ccccn4)c(Cl)c3)c2cc1NC(=O)/C=C/CN(C)C` [Neratinib] gave a drug sensitivity score of 0. `C[C@@]1(C(=O)Nc2ccc(F)nc2)CCCN1c1nc(Nc2cc(C3CC3)n[nH]2)c2cccn2n1` gave a drug sensitivity score of 9.05. `C#Cc1cccc(Nc2ncnc3cc(OC)c(OCCCCCCC(=O)NO)cc23)c1` [CUDC-101] showed a drug sensitivity score of 0. `COc1ncc(-c2ccc3nccc(-c4ccnnc4)c3c2)cc1NS(=O)(=O)c1ccc(F)cc1F` gave a drug sensitivity score of 0. `Cn1c(=O)c(F)c(Nc2ccc(I)cc2F)c2c(=O)n(C[C@@H](O)CO)cnc21` [TAK-733] gave a drug sensitivity score of 0. `COC1=CC(c2cc3ccccc3[nH]2)=N/C1=C\c1[nH]c(C)cc1C` [Obatoclax] showed a drug sensitivity score of 0. With `CS(=O)(=O)OCCCCOS(C)(=O)=O` [Busulfan] the drug sensitivity score was 0. `COc1cccc2c1C(=O)c1c(O)c3c(c(O)c1C2=O)C[C@@](O)(C(C)=O)C[C@@H]3O[C@H]1C[C@H](N)[C@H](O)[C@H](C)O1` [Daunorubicin] showed a drug sensitivity score of 0. `FC(F)c1nc2ccccc2n1-c1nc(N2CCOCC2)nc(N2CCOCC2)n1` [ZSTK474] gave a drug sensitivity score of 0. Molecule `CN1CCN(c2ccc3nc(-c4c(N)c5c(F)cccc5[nH]c4=O)[nH]c3c2)CC1` [Dovitinib] has a drug sensitivity score of 0.

What follows are molecules tested on HCC1599 in the same assay as above. Conditions: incubation time: 72 h.
Procedure, shortened: as §1
Work on `C[C@@H]1C=C2C(=O)O[C@@H]3CC[C@H](C1)[C@]23O` [Galiellalactone] yielded a drug sensitivity score of 0. Molecule `C[C@@H]1CCN(C(=O)CC#N)C[C@@H]1N(C)c1ncnc2[nH]ccc12` [Tofacitinib] has a drug sensitivity score of 0. Molecule `Nc1nccc(-c2c(-c3ccc(F)cc3)ncn2C2CCCCC2)n1` has a drug sensitivity score of 0. In the case of `CCOc1cc2ncc(C#N)c(Nc3ccc(OCc4ccccn4)c(Cl)c3)c2cc1NC(=O)/C=C/CN(C)C` [Neratinib], the drug sensitivity score is reported as 0. Molecule `C[C@@]1(C(=O)Nc2ccc(F)nc2)CCCN1c1nc(Nc2cc(C3CC3)n[nH]2)c2cccn2n1` has a drug sensitivity score of 0. With `C#Cc1cccc(Nc2ncnc3cc(OC)c(OCCCCCCC(=O)NO)cc23)c1` [CUDC-101] the drug sensitivity score was 0. For `COc1ncc(-c2ccc3nccc(-c4ccnnc4)c3c2)cc1NS(=O)(=O)c1ccc(F)cc1F`, the drug sensitivity score was 0. Work on `Cn1c(=O)c(F)c(Nc2ccc(I)cc2F)c2c(=O)n(C[C@@H](O)CO)cnc21` [TAK-733] yielded a drug sensitivity score of 0. In the case of `COC1=CC(c2cc3ccccc3[nH]2)=N/C1=C\c1[nH]c(C)cc1C` [Obatoclax], the drug sensitivity score is reported as 0. With `CS(=O)(=O)OCCCCOS(C)(=O)=O` [Busulfan] the drug sensitivity score was 0. `COc1cccc2c1C(=O)c1c(O)c3c(c(O)c1C2=O)C[C@@](O)(C(C)=O)C[C@@H]3O[C@H]1C[C@H](N)[C@H](O)[C@H](C)O1` [Daunorubicin] was tested, and the drug sensitivity score was 0. Molecule `FC(F)c1nc2ccccc2n1-c1nc(N2CCOCC2)nc(N2CCOCC2)n1` [ZSTK474] has a drug sensitivity score of 0. For `CN1CCN(c2ccc3nc(-c4c(N)c5c(F)cccc5[nH]c4=O)[nH]c3c2)CC1` [Dovitinib], the drug sensitivity score was 0.

The molecules below were run on HCC1937 in the same assay as above. Conditions: incubation time: 72 h.
Procedure, shortened: as §1
For `C[C@@H]1C=C2C(=O)O[C@@H]3CC[C@H](C1)[C@]23O` [Galiellalactone], the drug sensitivity score was 0. `C[C@@H]1CCN(C(=O)CC#N)C[C@@H]1N(C)c1ncnc2[nH]ccc12` [Tofacitinib] gave a drug sensitivity score of 0. `Nc1nccc(-c2c(-c3ccc(F)cc3)ncn2C2CCCCC2)n1` was tested, and the drug sensitivity score was 0.
